Among the data in PubChem BioAssay AID2060342 (Molecular Pharmacology Branch, DTP, NCI, 2025) are IC50 and viability, T/C values, retold here.

pIC50: −log10 of the molar value. “And” between values parts separate entries of the source, which are not always exact repeats. Equal entries are not always repeated.

This assay relates to 171881-019-R-J1-PDC multicell spheroid viability. The assay is described as follows: Anticancer human tumor 171881-019-R-J1-PDC patient-derived invasive breast carcinoma cell line growth inhibition [IpAb]. Particulars: for viability, T/C: stronger effect = lower value. From the text: Combinatorial screen of targeted agents with ipatasertib and abemaciclib in multi-cell type tumor spheroids
A high-throughput screen of multi-cell type tumor spheroids was designed to identify active combinations of targeted small molecules and ipatasertib or abemaciclib. Complex spheroids include a stromal component modeled by human endothelial cells (HUVEC) and fibroblasts modeled by human mesenchymal stem cells (MSCs). The concentration ranges selected for each drug and investigational agent were based upon clinically achievable concentrations if the clinical Cmax of the agent was known.
Compounds. The drugs and investigational agents: ipatasertib (NSC767898), abemaciclib(NSC768073), selumetinib (NSC741078), trametinib (758246), adavosertib (NSC754352), everolimus (NSC733504), sapanisertib (NSC764658), vemurafenib (NSC761431), venetoclax (NSC766270), copanlisib (NSC809693), apelisib (NSC765974), palbociblib (NSC758247), vemurafenib (NSC761431), dabrafenib (NSC764134), ravoxertinib (NSC781343), BMS-387032 (NSC767048), sotorasib (NSC818433), talazoparib (NSC767125) and afursertib (NSC778305), were obtained from the National Cancer Institute (NCI) Developmental Therapeutics Program Chemical Repository. The FDA-approved anticancer drug set is available from the NCI Developmental Therapeutics Program. […] The stock solutions were prepared in dimethyl sulfoxide (DMSO, Sigma-Aldrich, St. Louis, MO, cat. D2650) at 800-fold the tested concentration and stored at -70 degrees C prior to their use. All drugs and investigational agents were tested over a range starting from a high concentration at or near the clinical Cmax and decreasing in half-log increments. If the clinical Cmax for an agent had not been determined, the highest concentration tested was 10 microM.
NCI60 Cell Culture. NCI60 cell lines were obtained from the NCI Developmental Therapeutics Program Tumor Repository. For each lot of cells, the Repository performed Applied Biosystems AmpFLSTR Identifiler testing with PCR amplification to confirm consistency with the published Identifier STR profile for each cell line. Cells were kept in continuous culture for no more than 20 passages. The optimal seeding densities for each of the cell lines at each time point assessed were determined prior to performing the concentration response studies. Briefly, the NCI60 human tumor lines were grown as monolayers in RPMI 1640 medium supplemented with 10% FBS and 2 mmol/L L-glutamine.
An additional 9 lines were from the NCI60 cell line panel including MDA-MB-231 breast carcinoma, MDA-MB-468 breast carcinoma, MCF7 breast carcinoma, Hs578T breast carcinoma, MALME-3M melanoma, SK-MEL-2 melanoma, SK-OV-3 ovarian carcinoma, DU-145 prostate carcinoma, PC-3 prostate carcinoma, all cell lines along with major genetic alterations are listed on Table 2. Pooled donor human umbilical vein endothelial cells (HUVEC, Lonza, cat. CC-2519) and human mesenchymal stem cells (hMSC, Lonza, cat. PT-2501) were purchased from Lonza (Walkersville, MD).
PDMR cell lines were grown in complete medium (DC medium): Dulbecco's modified Eagle's medium (DMEM)/F12 supplemented with 5% fetal bovine serum (FBS), 2 mM L-glutamine, 100 U/mL penicillin and 100 µg/ml streptomycin, 0.4 µg/ml hydrocortisone, 10 ng/ml epidermal growth factor (EGF) recombinant human protein, 24 µg/mL adenine, and 0.1 mg/mL primocin. During culture from frozen stock vials, PDMR cells were cultured in the same medium containing 10 µM Y-27632 (see Table 3). The PDCs were cultured in complete DMEM/F12 media without 10 microM Y-27632 dihydrochloride for at least two passages prior to the screen. The pooled donor HUVEC and hMSC were cultured in endothelial cell growth medium 2 (PromoCell, Heidelberg, Germany, cat. C-22011) and mesenchymal stem cell growth medium 2 (PromoCell, cat. C-28009), respectively. For all experiments, HUVEC and hMSC were used at passages </=5.
[…]

[1] abbreviates: curve of first compound, second compound 0.1 µM.
Setting [2] is: curve of first compound, second compound 0.316 µM.
Setting [3] is: curve of first compound, second compound 1 µM.
[4] abbreviates: second compound 0.1 µM, first compound 0.000949 µM.
The mark [5] stands for this setting: second compound 0.1 µM, first compound 0.003 µM.
[6] abbreviates: second compound 0.1 µM, first compound 0.00949 µM.
[7] abbreviates: second compound 0.1 µM, first compound 0.03 µM.
[8] abbreviates: second compound 0.1 µM, first compound 0.0949 µM.
[9] abbreviates: second compound 0.1 µM, first compound 0.3 µM.
[10] abbreviates: second compound 0.316 µM, first compound 0.000949 µM.
The mark [11] stands for this setting: second compound 0.316 µM, first compound 0.003 µM.
Setting [12] is: second compound 0.316 µM, first compound 0.00949 µM.
Setting [13] is: second compound 0.316 µM, first compound 0.03 µM.
[14] abbreviates: second compound 0.316 µM, first compound 0.0949 µM.
The mark [15] stands for this setting: second compound 0.316 µM, first compound 0.3 µM.
[16] abbreviates: second compound 1 µM, first compound 0.000949 µM.
[17] abbreviates: second compound 1 µM, first compound 0.003 µM.
The mark [18] stands for this setting: second compound 1 µM, first compound 0.00949 µM.
Setting [19] is: second compound 1 µM, first compound 0.03 µM.
Setting [20] is: second compound 1 µM, first compound 0.0949 µM.
[21] abbreviates: second compound 1 µM, first compound 0.3 µM.
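Also: spheroids exposed to the agents for seven days before readout.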

By pIC50 is commonly meant −log10 of the IC50, conventionally taken in molar units. What is called viability, T/C is the result in the treated group divided by that in the control group, in per cent. As to `CC(=O)c1c(C)c2cnc(Nc3ccc(N4CCNCC4)cn3)nc2n(C2CCCC2)c1=O` + CC(C)NCC(C(=O)N1CCN(c2ncnc3c2C(C)CC3O)CC1)c1ccc(Cl)cc1, the negative logarithm of the IC50 (pIC50) runs as follows: under setting [1], less than 6.52; under setting [2], less than 6.52; under setting [3], more than 9.02; (curve of first compound, second compound 3.16 µM) more than 9.02; (curve of first compound, second compound 10 µM) more than 9.02. Further, the viability, T/C is 98.8% under setting [4]; 112% under setting [5]; 94% under setting [6]; 106% under setting [7]; 103% under setting [8]; 93.5% under setting [9]. For the same compound, the viability, T/C reads like this: under setting [10], 83.3%; under setting [11], 84.8%; under setting [12], 77.4%; under setting [13], 76.1%; under setting [14], 64.6%; under setting [15], 59.6%. Moreover, the viability, T/C by setting is: under setting [16], 30.8%; under setting [17], 26.1%; under setting [18], 27.8%; under setting [19], 25.9%; under setting [20], 26.1%; under setting [21], 23.9%. For the same compound, the viability, T/C was 12.4% (second compound 3.16 µM, first compound 0.000949 µM); 11.8% (second compound 3.16 µM, first compound 0.003 µM); 12.2% (second compound 3.16 µM, first compound 0.00949 µM); 10.2% (second compound 3.16 µM, first compound 0.03 µM); 9.89% (second compound 3.16 µM, first compound 0.0949 µM); 9.65% (second compound 3.16 µM, first compound 0.3 µM). Moreover, the viability, T/C is, setting by setting: (second compound 10 µM, first compound 0.000949 µM) 6.66%; (second compound 10 µM, first compound 0.003 µM) 6.56%; (second compound 10 µM, first compound 0.00949 µM) 6.69%; (second compound 10 µM, first compound 0.03 µM) 5.87%; (second compound 10 µM, first compound 0.0949 µM) 5.79%; (second compound 10 µM, first compound 0.3 µM) 5.34%.
With `C=CCn1c(=O)c2cnc(Nc3ccc(N4CCN(C)CC4)cc3)nc2n1-c1cccc(C(C)(C)O)n1`, the viability, T/C (compound 0.0316 µM) is 89.9% and 111%; the viability, T/C (compound 0.1 µM) is 106% and 111%; the viability, T/C (compound 0.316 µM) was 104% and 133%; the viability, T/C (compound 1 µM) is 35.1% and 43.7%; the viability, T/C (compound 3.16 µM) was 28.2% and 27.2%; the viability, T/C (compound 10 µM) was 27.9% and 24.9%. Also, the pIC50 (curve of compound) is 6.11 and 6.10.
`CCCS(=O)(=O)Nc1ccc(F)c(C(=O)c2c[nH]c3ncc(-c4ccc(Cl)cc4)cc23)c1F`: the viability, T/C (compound 0.0316 µM) was 111% and 90.2%; the viability, T/C (compound 0.1 µM) was 95.2% and 83%; the viability, T/C (compound 0.316 µM) was 86.9% and 93.1%; the viability, T/C (compound 1 µM) was 90.1% and 80.4%; the viability, T/C (compound 3.16 µM) was 78.3% and 72.6%; the viability, T/C (compound 10 µM) is 76.2% and 87.7%. Further, under “curve of compound”, the pIC50 is less than 5.00.
Turning to `CC(=O)c1c(C)c2cnc(Nc3ccc(N4CCNCC4)cn3)nc2n(C2CCCC2)c1=O` + CCN1CCN(Cc2ccc(Nc3ncc(F)c(-c4cc(F)c5nc(C)n(C(C)C)c5c4)n3)nc2)CC1, the pIC50 runs as follows: (curve of first compound, second compound 0.01 µM) less than 6.52; (curve of first compound, second compound 0.0316 µM) less than 6.52; under setting [1], less than 6.52; under setting [2], less than 6.52; under setting [3], less than 6.52. Moreover, the viability, T/C by setting is: (second compound 0.01 µM, first compound 0.000949 µM) 98%; (second compound 0.01 µM, first compound 0.003 µM) 90.7%; (second compound 0.01 µM, first compound 0.00949 µM) 77%; (second compound 0.01 µM, first compound 0.03 µM) 94.4%; (second compound 0.01 µM, first compound 0.0949 µM) 105%; (second compound 0.01 µM, first compound 0.3 µM) 107%. For the same compound, the viability, T/C was 107% (second compound 0.0316 µM, first compound 0.000949 µM); 96.6% (second compound 0.0316 µM, first compound 0.003 µM); 103% (second compound 0.0316 µM, first compound 0.00949 µM); 110% (second compound 0.0316 µM, first compound 0.03 µM); 107% (second compound 0.0316 µM, first compound 0.0949 µM); 109% (second compound 0.0316 µM, first compound 0.3 µM). Also, the viability, T/C was 119% under setting [4]; 109% under setting [5]; 115% under setting [6]; 117% under setting [7]; 115% under setting [8]; 112% under setting [9]. For the same compound, the viability, T/C under setting [10] was 120%; the viability, T/C under setting [11] is 136%; the viability, T/C under setting [12] is 127%; the viability, T/C under setting [13] was 122%; the viability, T/C under setting [14] is 123%; the viability, T/C under setting [15] is 122%. The viability, T/C was 144% under setting [16]; 143% under setting [17]; 142% under setting [18]; 142% under setting [19]; 140% under setting [20]; 132% under setting [21].
